Measured values reported in patent US20050107616A1, “Alpha-ketoamide derivatives as cathepsin k inhibitors” (priority 2001, published 2005).
pKi: −log10 of the molar value.

Tests used:
[1] = biological target: T1, rat cathepsin K (Rattus norvegicus, UniProt O35186); experiment: Cathepsin K inhibition assay, fluorogenic substrate Cbz-Phe-Arg-AMC, progress curve method; assay type: biochemical; details: Table 2; rat recombinant enzyme, pH 5.5, 30° C., 10 μM substrate; read-out: rCat K Ki
T1 construct: The proform of cathepsin K was converted to mature cathepsin K by brief exposure to pH 4; made in house; host or cells: baculovirus; Trichoplusia ni High Five cells (virus raised in Sf-9)
T1 sequence (O35186 115-329): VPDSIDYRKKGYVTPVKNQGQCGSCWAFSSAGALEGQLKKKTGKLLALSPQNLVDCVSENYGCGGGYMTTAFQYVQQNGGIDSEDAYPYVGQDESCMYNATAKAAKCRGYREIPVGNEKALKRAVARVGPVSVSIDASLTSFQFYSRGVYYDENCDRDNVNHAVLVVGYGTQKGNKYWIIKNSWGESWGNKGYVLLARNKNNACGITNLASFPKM
Description: (§1) All assays for cathepsin K were carried out with human and rat recombinant enzyme. Assays for cathepsins S Et V were also carried out with human recombinant enzyme. Assays for human cathepsins B. H. and L were carried out with enzyme, purchased from Athens Research and Technology, Inc., prepared from human liver tissue. Standard assay conditions for the determination of kinetic constants used a fluorogenic peptide substrate, typically (5S,8S)-13-amino-5-benzyl-13-imino-3-methylene-N-(4methyl-2-oxo-2H-chromen-7-yl)-6-oxo-1-phenyl-2-oxa-4,7,12-triazatridecane-8-carboxamide (Cbz-Phe-Arg-AMC), and were determined in 100 mM sodium acetate at pH 5.5 containing 10 mM dithiothreitol and 120 mM sodium chloride. A stock substrate solution of Cbz-Phe-Arg-AMC was prepared at a concentration of 50 mM in dimethyl sulfoxide. This substrate was diluted into the assay for a final substrate concentration of 10 μM in the rat cathepsin K, human cathepsin K, and human cathepsin B assays; a final substrate concentration of 5 μM in the human cathepsin L assay; and a final substrate concentration of 2 μM in the human cathepsin V assay.
(§2) All assays contained 10% dimethyl sulfoxide. […] All assays were conducted at 30° C. Product fluorescence (excitation at 360 nm; emission at 440 nm, (except cathepsin H which used excitation at 340 nm; emission at 420 nm)) was monitored with a PerSeptive Biosystems Cytofluor II fluorescence plate reader. Product progress curves were generated over 2.3 h monitoring the formation of 7-amino-4-methylcoumarin product (or β-naphthalamide for cathepsin H).
Scale-Up and Fermentation: The method of O'Reilly et al. (1994) was used for baculovirus expression with the following details. Two liters of Spodoptera frugiperda (Sf-9) cells (ATCC) were grown in Grace's Supplemented medium (Life Technologies) supplemented with 2 g/L glucose, 10% a fetal bovine serum (HyClone) and 0.10% pluronic F-68 (Life Technologies). Cells were grown in a 6 L shake flask at 150 RPM at 28° C. for 24 h to a density of 10^6 cells/mL, and then infected at a multiplicity of infection (MOI) of 0.1. The cells continued to grow for 72 h post-infection, before the virus was harvested by centrifugation at 1400× g for 30 min. Virus was titered as described (Summers and Smith, 1987).
One and one-half liters of Trichoplusia ni (T. ni) High Five (TM) cells [JRH Biosciences, Woodland, Calif. (adapted to suspension and serum-free medium)] grown in Excell 405 (TM) medium (JRH Biosciences) with 50 ug/mL gentamicin (Life Technologies) were added to a 15 L stirred tank reactor (Quark Enterprises, Inc) at a density of ˜0.5×10^6 cells/mL The cells were grown for 24 h at 28° C., 50 RPM, and 50% dissolved oxygen. Cells were then infected at a density of ˜10^6 cells/mL with an MOI of 1 and grown for 48 h post-infection. Media were separated from cells at a rate of 1 L/min using the Centritech 100 (TM) continuous-flow centrifuge (DuPont) operating at 200× g.
Protein Purification: Media (human and rat) were filtered through a Whatman 3 filter, and then loaded onto a 25 mL Poros HS II (26 mm×47 mm) cation exchange column equilibrated in 25 mM sodium acetate at pH 5.5 (equilibration buffer). The column was washed until the absorbance reached the baseline value, and then the protein was eluted with a linear gradient from 0-2 M sodium chloride in the equilibration buffer. Column fractions were analyzed by SDS-PAGE, N-terminal sequencing, and mass spectrometry. Fractions containing the proform of cathepsin K were pooled and frozen at −80° C. The proform was concentrated in an Amicon Centriprep 10 and fractionated with a Superdex 75 column (26 mm×600 mm, Pharmacia) equilibrated in 400 mM sodium chloride, 25 mM sodium acetate at pH 5.5.
Cathepsin K Activation: The proform of cathepsin K was converted to mature cathepsin K by brief exposure to pH 4 in the presence of 5 mM L-cysteine. […]

[2] = biological target: human cathepsin H (Homo sapiens, UniProt P09668); experiment: Cathepsin H inhibition assay, substrate L-Arg-β-naphthalamide; assay type: biochemical; details: Table 2; enzyme from human liver tissue, pH 5.5, 30° C.; read-out: hCat H Ki
human cathepsin H, sequence (P09668 116-335 limits assumed, other chains not shown): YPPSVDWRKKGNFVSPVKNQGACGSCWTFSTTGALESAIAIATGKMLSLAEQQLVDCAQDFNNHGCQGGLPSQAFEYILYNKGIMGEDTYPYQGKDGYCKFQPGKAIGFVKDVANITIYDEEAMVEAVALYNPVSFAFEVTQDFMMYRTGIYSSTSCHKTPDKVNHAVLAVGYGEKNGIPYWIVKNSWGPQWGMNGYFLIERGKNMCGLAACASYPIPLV
Description: as §1
A stock substrate solution of (2S)-2-amino-5-{[amino(imino)methyl]amino}-N-(2-naphthyl)pentanamide hydrochloride (L-Arg-β-naphthalamide.HCl) was prepared at a concentration of 10 mM in dimethyl sulfoxide. This substrate was diluted into the assay for a final substrate concentration of […] in the cathepsin H assay.
as §2
Potential inhibitors were evaluated using the progress curve method. Assays were carried out in the presence of variable concentrations of test compound. Reactions were initiated by addition of buffered solutions of inhibitor and substrate to enzyme. Data analysis was conducted according to one of two procedures depending on the appearance of the progress curves in the presence of inhibitors. For those compounds whose progress curves were linear, the enzymatic activity (RATE) was plotted against the concentration of test compound, including inhibitor concentration of zero ([I]=0), and the IC50 determined from a fit of equation 1 to the data, RATE=Vmax/(1+([I]/IC50)) (1) where Vmax is the best fit estimate of the maximal enzymatic activity. Ki values were calculated from IC50 values using equation 2 assuming a competitive model. [formula]

| SMILES | pKi [1] | pKi [2] |
| --- | --- | --- |
| CCCC[C@H](NC(=O)O[C@H](Cc1nnc(-c2ccc(F)cc2)o1)C(C)(C)C)C(=O)C(=O)Nc1ccnn1C (stereo in doubt) [Example 22, (1R)-1-{[5-(4-fluorophenyl)-1,3,4-oxadiazol-2-yl]methyl}-2,2-dimethylpropyl(1S)-1-[[(1-methyl-1H-pyrazol-5-yl)amino](oxo)acetyl]pentyl carbamate] | 5.00 to 7.00 |  |
| CCCC[C@H](NC(=O)O[C@H](Cn1ccc(-c2ccc(C(F)(F)F)cc2)n1)C(C)(C)C)C(=O)C(=O)Nc1ccn[nH]1 [Example 1] | 9.00 to 11.00 | 5.00 to 7.00 |
| CCCC[C@H](NC(=O)O[C@H](Cn1cnc(-c2ccc(C(F)(F)F)cc2)c1)C(C)(C)C)C(=O)C(=O)Nc1ccn[nH]1 [Example 7, (1S)-2,2-dimethyl-1-({4-[4-(trifluoromethyl)phenyl]-1H-imidazol-1-yl}methyl)propyl(1S)-1-[oxo(1H-pyrazol-5-ylamino)acetyl]pentylcarbamate] | 9.00 to 11.00 | 5.00 to 7.00 |
| CCCC[C@H](NC(=O)O[C@H](Cn1cnc(-c2ccc(C(F)(F)F)cc2)c1)C(C)(C)C)C(=O)C(=O)Nc1ccnn1C1CCC1 [Example 35, (1S)-2,2-dimethyl-1-({4-[4-(trifluoromethyl)phenyl]-1H-imidazol-1-yl}methyl)propyl(1S)-1-[[(1-cyclobutyl-1H-pyrazol-5-yl)amino](oxo)acetyl]pentylcarbamate] | 7.00 to 9.00 | 5.00 to 7.00 |
| CCCC[C@H](NC(=O)O[C@H](Cn1cnc2cc(Cl)c(Cl)cc21)C(C)(C)C)C(=O)C(=O)Nc1ccn[nH]1 [Example 37, (1S)-1-[(5,6-dichloro-1H-benzimidazol-1-yl)methyl]-2,2-dimethylpropyl(1S)-1-[oxo(1H-pyrazol-5-ylamino)acetyl]pentylcarbamate] | 9.00 to 11.00 | 5.00 to 7.00 |
| CCCC[C@H](NC(=O)O[C@H](c1nnc(-c2ccc(C(F)(F)F)cc2)o1)C(C)(C)C)C(=O)C(=O)Nc1ccn[nH]1 [Example 38, (1S)-2,2-dimethyl-1-{5-[4-(trifluoromethyl)phenyl]-1,3,4-oxadiazol-2-yl}propyl(1S)-1-[oxo(1H-pyrazol-5-ylamino)acetyl]pentylcarbamate] | 7.00 to 9.00 | 5.00 to 7.00 |
| CCCC[C@H](NC(=O)O[C@H](c1nnc(-c2ccc(C(F)(F)F)cc2)o1)C(C)(C)C)C(=O)C(=O)NN1CCOC1=O [Example 39, (1S)-2,2-dimethyl-1-{5-[4-(trifluoromethyl)phenyl]-1,3,4-oxadiazol-2-yl}propyl(1S)-1-{oxo[(2-oxo-1,3-oxazolidin-3-yl)amino]acetyl}pentylcarbamate] | 7.00 to 9.00 | 5.00 to 7.00 |
